US11970452B2, “Modulators of mas-related G-protein receptor X2 and related products and methods” (Escient Pharmaceuticals, Inc., priority 2020, dated 2024)

Key:
Human LAD2 cells = assay: Mast Cell Beta-Hexosaminidase Release Assay (versus 500 nM Cortistatin-14); format: cell-based; conditions: 500 nM Cortistatin-14 agonist, read-out: MRGPR2 Antagonist Activity
Experimental: Human LAD2 cells (NIH) were maintained in an incubator at 37° C. with 5% CO2 and cultured in StemPro-34 serum-free media (Gibco 10639011) supplemented with 2 mM L-glutamine, 100 U/ml penicillin, […] streptomycin and 100 ng/ml SCF (Invitrogen PEP0860), at a concentration of 2-5×10^5 cells/mL, with hemidepletion every 1-2 weeks.
Cells were transferred to SCF-Free medium at 2.5×10^5 cells/mL and kept in an incubator overnight. On the day of the assay, cells were washed twice in Assay Buffer (final concentrations 10 mM HEPES, 137 mM NaCl, 5.6 mM D-glucose, 2.7 mM KCl, 1 mM MgCl, 1.8 mM CaCl2, 0.4 mM Na2HPO4.7H2O, 0.04% BSA, pH=7.4) and plated in a 96-well v-bottom plate at 20,000 cells per well in 80 μL Assay Buffer. Antagonist compounds solubilized at 10 mM in DMSO were diluted in Assay Buffer to 10× final desired concentrations as a 10-point curve (10 μM final top concentration with 1:3 serial dilutions) and 10 μL added per well. Plates were then incubated for 1 hour at 37° C. Agonists were diluted in Assay Buffer to 10× desired concentrations and 10 μL of the appropriate agonist added to each well. The final concentration of Cortistatin-14 (Tocris 3374) used in antagonist assays was 500 nM. Final concentrations of DMSO were kept consistent across the plate. Plates were then incubated in a warm air oven for 30 minutes at 37° C., followed by centrifugation at 4° C. for 5 minutes at 450×g. 50 μL supernatant from each well was then transferred to a 96-well flat bottom plate containing 100 μL substrate solution per well (3.5 mg/mL p-Nitrophenyl-N-acetyl-β-D-glucosaminide (Sigma 487052) in Citrate Buffer containing a final concentration of 40 mM Citric Acid, 20 mM Na2HPO4.7H2O, pH=4.5). To the cell pellets left in the remaining assay buffer, 150 μL 0.1% Triton-X-100 was then added to each well, resuspended by pipetting up and down, and 50 μL cell lysates transferred to a second 96-well flat bottom plate containing 100 μL substrate solution per well. Plates containing transferred supernatant and cell lysates were then incubated in a warm air oven for 90 minutes at 37° C. After incubation, 50 μL of 400 mM Glycine buffer (pH 10.7) was added into each well and the plate was read on a Molecular Devices SpectraMax iD5 plate reader (absorbance at 405 nm with reference filter at 620 nm). After background subtraction, the percentage degranulation (percent beta-hexosaminidase release) was calculated as 100×(supernatant values)/(supernatant+lysate values), followed by analysis using GraphPad Prism software to calculate an IC50 value for each compound.
(§1) The activity ranges are denoted as follows: “+++++” denotes antagonist activity <100 nM; “++++” denotes antagonist activity between 100 and 500 nM; “+++” denotes activity between 501 and 1000 nM; “++” denotes activity between 1001 and 2500 nM; and “+” denotes activity >2500 nM

human MRGPRX2 = target: T1, human MRGPRX2 (Homo sapiens, UniProt Q96LB1); assay: MRGPRX2 activity: IP-One HTRF antagonist assay versus 0.3 uM Cortistatin 14; format: cell-based; conditions: CHO cells expressing human MRGPRX2; IP-1 HTRF; versus 0.3 uM Cortistatin 14 agonist; read-out: MRGPR2 Antagonist Activity
T1 construct: expressed in transfected cells
T1 sequence (Q96LB1 1-330): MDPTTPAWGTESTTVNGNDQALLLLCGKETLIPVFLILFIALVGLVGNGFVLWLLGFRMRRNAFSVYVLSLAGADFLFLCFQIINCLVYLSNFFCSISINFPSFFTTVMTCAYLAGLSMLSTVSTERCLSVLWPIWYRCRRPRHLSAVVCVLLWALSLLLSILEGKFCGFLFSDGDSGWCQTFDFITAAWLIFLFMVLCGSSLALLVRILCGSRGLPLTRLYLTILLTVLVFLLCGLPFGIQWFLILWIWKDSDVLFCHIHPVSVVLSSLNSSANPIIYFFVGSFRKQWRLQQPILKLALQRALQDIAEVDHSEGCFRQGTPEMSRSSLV
Experimental: CHO cells stably transfected to express human MRGPRX2 were maintained in an incubator at 37° C. with 5% CO2 and grown in F12 (HAM) media with 10% fetal bovine serum (FBS), 1% Glutamax, 1% penicillin/streptomycin, 800 μg/mL Geneticin (G418), and 300 μg/mL Hygromycin B.
Cells were plated in a […] assay plate at 20,000 cells per well in 12 μL of Opti-MEM and kept in an incubator overnight. On the day of the assay, compounds solubilized at 10 mM in DMSO were added as a 10-point curve (30 uM final top concentration with 1:3 serial dilutions) using a Tecan D300E digital dispenser. Agonists were diluted in assay buffer (final concentrations of 5.7 mM Tris-HCl, 43 mM NaCl, 50 mM LiCl, pH=8) and 2 μL of the agonist Cortistatin 14 (CPC Scientific, catalog CORT-002) are added to each well. Final concentrations of agonists were 0.3 μM Cortistatin. Final concentrations of DMSO were kept consistent across the plate. Plates were incubated in the dark for 1 h at 37° C. and then for 1 h at room temperature. IP-1 standards and HTRF detection reagents were added according to the IP-One-Gq Kit purchased from Cisbio (part number 62IPAPEJ) and incubated in the dark for 1 h at room temperature. The plate was read on a Molecular Devices SpectraMax iD5 plate reader. The HTRF ratio was calculated from the raw data and graphed using GraphPad Prism to calculate an IC50 value for each compound.
as §1

Compound: O=C(N[C@H]1CC[C@@H](Nc2nc(C(F)(F)F)nc3ccccc23)CC1)c1ccc(F)cc1 [1-7, 4-fluoro-N-[(1s,4s)-4-{[2-(trifluoromethyl)quinazolin-4-yl]amino}cyclohexyl]benzamide]
- IC50 (Human LAD2 cells): 0.501 to 1 µM

Compound: O=C(N[C@H]1CC[C@@H](Nc2cc(C(F)(F)F)nc3ccccc23)CC1)c1ccc(Cl)cc1 [3-10]
- IC50 (Human LAD2 cells): 0.1 to 0.5 µM

Compound: CN(C)c1ccc(C(=O)N[C@H]2CC[C@@H](Nc3cc(C(F)(F)F)nc4ccccc34)CC2)cc1 [3-25]
- IC50 (Human LAD2 cells): 0.1 to 0.5 µM
- IC50 (human MRGPRX2): 0.1 to 0.5 µM

Compound: O=C(N[C@H]1CC[C@@H](Nc2cc(C(F)(F)F)nc3ccccc23)CC1)c1ccccc1 [3-30]
- IC50 (Human LAD2 cells): 0.501 to 1 µM
- IC50 (human MRGPRX2): 0.1 to 0.5 µM

Compound: CC(=O)Nc1cccc(C(=O)N[C@H]2CC[C@@H](Nc3cc(C(F)(F)F)nc4ccc(Cl)cc34)CC2)c1 [4-7]
- IC50 (Human LAD2 cells): 0.1 to 0.5 µM
- IC50 (human MRGPRX2): < 0.1 µM

Compound: CNc1ccc(C(=O)N[C@H]2CC[C@@H](Nc3cc(C(F)(F)F)nc4ccc(Cl)cc34)CC2)cc1 [4-9]
- IC50 (Human LAD2 cells): < 0.1 µM

Compound: O=C(N[C@H]1CC[C@@H](Nc2cc(C(F)(F)F)nc3ccc(Cl)cc23)CC1)c1ccnc2[nH]ccc12 [4-139]
- IC50 (Human LAD2 cells): < 0.1 µM

Compound: N#Cc1cccc(C(=O)N[C@H]2CC[C@@H](Nc3nc(C(F)(F)F)nc4ccccc34)CC2)c1 [4-288]
- IC50 (Human LAD2 cells): 0.501 to 1 µM
